# Like-named read-outs stand apart in the source and are kept apart here.
# Tests used:
# [1] = test system: endothelial tube formation in co-cultures of ECFCs and ADSCs treated with VEGF; experiment: cells; format: cell-based, human
# HeLa cells = experiment: cells; format: cell-based; conditions: for Hela CellCycMod PI 2N IC50/EC50: assay number 14; for Hela CellCycMod PI 4N IC50/EC50: assay number 16; for Hela CellCycMod PI MI IC50/EC50: assay number 17; for Hela CellCycMod PI Cell Number IC50/EC50: assay number 18
# hp70S6K1 (RPS6KB1) = target: T1, hp70S6K1 (RPS6KB1) (Homo sapiens, UniProt P23443); experiment: Cerep LANCE kinase assay hp70S6K1 (S1 assay 31); format: biochemical; conditions: for hp70S6K1 LANCE IC50/EC50: assay number 31
# T1 construct: purchased Cerep (LANCE kinase assay platform, contract assay)
# hKDR = target: T2, hKDR (Homo sapiens, UniProt P35968); experiment: Cerep LANCE kinase assay hKDR (S1 assay 32); format: biochemical; conditions: for hKDR LANCE IC50/EC50: assay number 32
# T2 construct: purchased Cerep (LANCE kinase assay platform, contract assay)
# hJAK2 = target: T3, hJAK2 (Homo sapiens, UniProt O60674); experiment: Cerep LANCE kinase assay hJAK2 (S1 assay 33); format: biochemical; conditions: for hJAK2 LANCE IC50/EC50: assay number 33
# T3 construct: purchased Cerep (LANCE kinase assay platform, contract assay)
# hGSK3b = target: T4, hGSK3b (Homo sapiens, UniProt P49841); experiment: Cerep LANCE kinase assay hGSK3b (S1 assay 34); format: biochemical; conditions: for hGSK3b LANCE IC50/EC50: assay number 34
# T4 construct: purchased Cerep (LANCE kinase assay platform, contract assay)
# hFLT3 = target: T5, hFLT3 (Homo sapiens, UniProt P36888); experiment: Cerep LANCE kinase assay hFLT3 (S1 assay 35); format: biochemical; conditions: for hFLT3 LANCE IC50/EC50: assay number 35
# T5 construct: purchased Cerep (LANCE kinase assay platform, contract assay)
# [2] = test system: ECFC/ADSC co-culture cell nuclei number
# DLD-1 = experiment: cells; format: cell-based
# SW480 = experiment: cells; format: cell-based; conditions: assay number 24
# HCT116 = experiment: cells; format: cell-based
# Colo320 = experiment: cells; format: cell-based
# HT-29 = experiment: cells; format: cell-based; conditions: assay number 28
# RKO = experiment: cells; format: cell-based; conditions: assay number 29
# [3] = test system: nuclear β-catenin in C2C12 cells; experiment: cells; format: cell-based; conditions: Mus musculus, C2C12, read-out: Wnt Pathway
# INS-1E cells = experiment: cells; format: cell-based, rat; conditions: Rattus norvegicus, INS-1E, read-out: Insulin Secretion
# NCI-H716 cells = experiment: cells; format: cell-based, Human; conditions: Homo sapiens, NCI-H716, read-out: GLP 1 Secretion
# [4] = test system: HCT116 cells treated with a GSK3β inhibitor; experiment: cells; format: cell-based; conditions: Homo sapiens, HCT-116, read-out: GSK3b inh pretreated_Viability ATP HCT116
# [5] = kinase assay, read-out: p70S6K1
# T5 sequence (P36888 27-993): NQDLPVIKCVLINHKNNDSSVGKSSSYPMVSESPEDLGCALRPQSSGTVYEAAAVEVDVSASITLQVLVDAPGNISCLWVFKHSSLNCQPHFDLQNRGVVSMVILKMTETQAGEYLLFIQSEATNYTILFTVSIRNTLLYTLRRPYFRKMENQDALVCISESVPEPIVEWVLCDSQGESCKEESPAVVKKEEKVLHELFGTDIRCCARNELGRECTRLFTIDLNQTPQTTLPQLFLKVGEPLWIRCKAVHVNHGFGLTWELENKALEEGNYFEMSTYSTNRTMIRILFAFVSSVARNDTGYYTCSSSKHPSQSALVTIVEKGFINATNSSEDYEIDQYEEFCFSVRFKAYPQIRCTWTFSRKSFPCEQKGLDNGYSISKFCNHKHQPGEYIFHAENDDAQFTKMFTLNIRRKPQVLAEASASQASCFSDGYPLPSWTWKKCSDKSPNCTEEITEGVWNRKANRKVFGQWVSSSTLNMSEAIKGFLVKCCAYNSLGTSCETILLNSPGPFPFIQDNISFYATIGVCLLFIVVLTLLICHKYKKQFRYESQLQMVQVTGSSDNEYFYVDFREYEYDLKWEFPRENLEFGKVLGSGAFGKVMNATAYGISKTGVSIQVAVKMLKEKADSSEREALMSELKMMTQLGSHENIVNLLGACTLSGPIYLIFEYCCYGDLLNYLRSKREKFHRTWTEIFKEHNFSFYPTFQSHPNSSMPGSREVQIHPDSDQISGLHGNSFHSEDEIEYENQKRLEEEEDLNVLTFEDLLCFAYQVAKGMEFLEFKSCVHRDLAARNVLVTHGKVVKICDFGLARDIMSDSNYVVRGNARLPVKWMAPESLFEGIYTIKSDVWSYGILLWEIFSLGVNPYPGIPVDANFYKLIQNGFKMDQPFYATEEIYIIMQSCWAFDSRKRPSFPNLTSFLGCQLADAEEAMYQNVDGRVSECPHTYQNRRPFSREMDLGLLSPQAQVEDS
# T3 sequence (O60674 whole entry): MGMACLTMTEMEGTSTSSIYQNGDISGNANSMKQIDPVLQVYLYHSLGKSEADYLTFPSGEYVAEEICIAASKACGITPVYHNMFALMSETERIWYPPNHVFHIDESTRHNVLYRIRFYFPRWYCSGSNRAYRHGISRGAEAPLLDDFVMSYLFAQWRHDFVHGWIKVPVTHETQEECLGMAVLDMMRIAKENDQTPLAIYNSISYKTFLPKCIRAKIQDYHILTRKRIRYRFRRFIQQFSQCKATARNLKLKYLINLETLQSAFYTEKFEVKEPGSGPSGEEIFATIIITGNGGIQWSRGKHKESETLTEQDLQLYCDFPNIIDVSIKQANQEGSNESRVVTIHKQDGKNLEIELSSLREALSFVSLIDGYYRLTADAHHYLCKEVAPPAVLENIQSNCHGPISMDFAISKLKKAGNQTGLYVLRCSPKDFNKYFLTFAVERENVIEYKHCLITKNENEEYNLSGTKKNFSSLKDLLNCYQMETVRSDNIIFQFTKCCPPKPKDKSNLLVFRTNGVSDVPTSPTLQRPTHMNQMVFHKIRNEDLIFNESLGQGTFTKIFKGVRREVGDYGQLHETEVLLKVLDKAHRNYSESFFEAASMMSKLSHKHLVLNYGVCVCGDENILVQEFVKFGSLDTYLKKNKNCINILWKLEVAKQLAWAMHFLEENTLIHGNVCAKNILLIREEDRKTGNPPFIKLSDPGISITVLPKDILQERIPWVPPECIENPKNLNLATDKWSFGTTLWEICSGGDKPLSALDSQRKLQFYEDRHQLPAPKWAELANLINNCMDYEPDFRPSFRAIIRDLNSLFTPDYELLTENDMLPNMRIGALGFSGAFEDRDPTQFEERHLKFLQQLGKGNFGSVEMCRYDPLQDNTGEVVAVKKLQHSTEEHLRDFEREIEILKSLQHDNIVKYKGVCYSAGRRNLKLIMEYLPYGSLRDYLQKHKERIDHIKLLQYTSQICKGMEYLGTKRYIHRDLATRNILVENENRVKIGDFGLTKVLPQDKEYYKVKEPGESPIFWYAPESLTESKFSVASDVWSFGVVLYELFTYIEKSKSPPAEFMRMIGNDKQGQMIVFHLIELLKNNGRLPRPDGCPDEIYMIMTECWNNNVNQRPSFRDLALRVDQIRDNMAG
# T1 sequence (P23443 whole entry): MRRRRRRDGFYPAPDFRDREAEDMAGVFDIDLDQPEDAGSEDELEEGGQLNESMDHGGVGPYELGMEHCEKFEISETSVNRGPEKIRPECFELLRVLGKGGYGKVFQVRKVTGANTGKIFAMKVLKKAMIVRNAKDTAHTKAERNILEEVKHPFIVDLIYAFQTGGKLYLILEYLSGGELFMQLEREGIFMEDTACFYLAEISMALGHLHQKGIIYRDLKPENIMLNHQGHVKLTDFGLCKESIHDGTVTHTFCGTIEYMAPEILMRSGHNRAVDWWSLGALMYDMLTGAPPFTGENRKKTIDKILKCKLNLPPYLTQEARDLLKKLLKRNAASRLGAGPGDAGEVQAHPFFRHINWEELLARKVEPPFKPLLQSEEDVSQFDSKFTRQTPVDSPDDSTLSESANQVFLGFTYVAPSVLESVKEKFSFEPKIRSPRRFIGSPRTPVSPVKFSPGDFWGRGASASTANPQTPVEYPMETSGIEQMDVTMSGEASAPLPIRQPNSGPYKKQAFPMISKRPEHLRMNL
# T4 sequence (P49841 whole entry): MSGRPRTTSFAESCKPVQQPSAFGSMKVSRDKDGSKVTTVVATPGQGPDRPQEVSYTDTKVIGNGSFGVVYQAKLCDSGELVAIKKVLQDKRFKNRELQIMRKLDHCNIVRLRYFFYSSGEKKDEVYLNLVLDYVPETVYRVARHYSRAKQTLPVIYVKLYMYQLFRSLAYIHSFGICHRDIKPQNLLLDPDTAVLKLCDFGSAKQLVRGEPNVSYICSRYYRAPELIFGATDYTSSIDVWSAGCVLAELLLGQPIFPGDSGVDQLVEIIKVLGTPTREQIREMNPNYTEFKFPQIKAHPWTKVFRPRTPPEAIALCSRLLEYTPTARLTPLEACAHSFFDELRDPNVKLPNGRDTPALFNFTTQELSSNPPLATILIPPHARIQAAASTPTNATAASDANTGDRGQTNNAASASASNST
# T2 sequence (P35968 20-1356): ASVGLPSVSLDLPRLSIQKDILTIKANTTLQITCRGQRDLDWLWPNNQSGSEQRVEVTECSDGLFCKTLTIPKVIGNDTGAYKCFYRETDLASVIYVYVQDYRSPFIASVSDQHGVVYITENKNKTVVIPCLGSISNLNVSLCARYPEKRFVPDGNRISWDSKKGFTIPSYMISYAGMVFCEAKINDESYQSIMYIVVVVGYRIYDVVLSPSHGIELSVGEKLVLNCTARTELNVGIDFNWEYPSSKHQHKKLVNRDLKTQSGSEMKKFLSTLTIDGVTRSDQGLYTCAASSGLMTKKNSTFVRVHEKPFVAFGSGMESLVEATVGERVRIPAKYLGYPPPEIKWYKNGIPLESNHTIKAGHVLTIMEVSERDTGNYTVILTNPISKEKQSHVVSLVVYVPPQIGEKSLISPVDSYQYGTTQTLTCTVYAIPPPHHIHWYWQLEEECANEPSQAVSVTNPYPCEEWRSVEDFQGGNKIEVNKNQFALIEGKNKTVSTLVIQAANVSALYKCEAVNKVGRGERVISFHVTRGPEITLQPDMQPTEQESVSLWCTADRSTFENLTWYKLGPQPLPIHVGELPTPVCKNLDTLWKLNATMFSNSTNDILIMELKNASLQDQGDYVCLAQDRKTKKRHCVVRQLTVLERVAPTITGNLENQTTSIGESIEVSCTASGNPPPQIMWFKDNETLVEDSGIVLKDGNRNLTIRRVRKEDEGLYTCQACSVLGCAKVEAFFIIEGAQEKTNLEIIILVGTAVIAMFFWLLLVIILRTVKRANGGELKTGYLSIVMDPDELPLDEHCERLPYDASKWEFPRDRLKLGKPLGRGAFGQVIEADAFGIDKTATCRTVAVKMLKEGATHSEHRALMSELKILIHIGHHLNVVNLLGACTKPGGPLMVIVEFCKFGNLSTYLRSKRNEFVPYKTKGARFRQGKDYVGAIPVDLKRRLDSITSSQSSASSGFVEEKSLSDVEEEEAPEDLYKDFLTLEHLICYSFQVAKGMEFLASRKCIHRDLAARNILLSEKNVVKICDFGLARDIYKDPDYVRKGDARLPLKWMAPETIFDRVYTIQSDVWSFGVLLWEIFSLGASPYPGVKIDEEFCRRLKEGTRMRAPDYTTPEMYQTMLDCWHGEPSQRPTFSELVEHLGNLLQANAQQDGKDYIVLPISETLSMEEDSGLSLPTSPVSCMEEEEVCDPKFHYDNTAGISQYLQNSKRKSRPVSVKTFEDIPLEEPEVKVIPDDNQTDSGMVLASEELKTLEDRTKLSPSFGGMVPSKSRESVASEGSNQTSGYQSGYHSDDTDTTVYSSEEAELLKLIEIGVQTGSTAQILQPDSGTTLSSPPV
Compound,VEGF_ADSC\ECFC Angio CD31 TubeArea IC50/EC50 [1],Hela CellCycMod PI 2N IC50/EC50 (HeLa cells),Hela CellCycMod PI 4N IC50/EC50 (HeLa cells),Hela CellCycMod PI MI IC50/EC50 (HeLa cells),Hela CellCycMod PI Cell Number IC50/EC50 (HeLa cells),hp70S6K1 LANCE IC50/EC50 (hp70S6K1 (RPS6KB1)),hKDR LANCE IC50/EC50 (hKDR),hJAK2 LANCE IC50/EC50 (hJAK2),hGSK3b LANCE IC50/EC50 (hGSK3b),hFLT3 LANCE IC50/EC50 (hFLT3),VEGF_ADSC\ECFC Angio Hoechst NucArea IC50/EC50 [2],IC50 (hp70S6K1 (RPS6KB1); [5]),IC50 (hKDR),"IC50 (hGSK3b; kinase assay, read-out: GSK3b)","IC50 (hFLT3; kinase assay, read-out: FLT3)",further results
C[C@@H]1C[C@@H]([C@H](O)CC2CC(=O)NC(=O)C2)C(=O)[C@@H](C)C1 [NCGC00169964-05],1.1486 µM,> 10 µM,> 10 µM,> 10 µM,0.5421 µM,> 20 µM,> 20 µM,> 20 µM,> 20 µM,> 20 µM,> 10 µM,–,–,–,–,–
CC(C)(C)C1CCC(CC2=C(O)c3ccccc3C(=O)C2=O)CC1 (stereo not drawn) [NCGC00253624-01],1.9625 µM,> 10 µM,> 10 µM,> 10 µM,> 10 µM,> 20 µM,> 20 µM,> 20 µM,> 20 µM,> 20 µM,> 10 µM,–,–,–,–,"Hela CellCycMod PI S Phase IC50/EC50 (HeLa cells; assay number 15, S phase): > 10 µM; Basal_Viability ATP DLD-1 IC50/EC50 (DLD-1; assay number 23): 0.2185 µM; Basal_Viability ATP SW480 IC50/EC50 (SW480): 0.2047 µM; Basal_Viability ATP HCT116 IC50/EC50 (HCT116; assay number 25, basal): 0.2268 µM; Basal_Viability ATP Colo 320 IC50/EC50 (Colo320; assay number 27): 0.2548 µM; Basal_Viability ATP HT-29 IC50/EC50 (HT-29): 3.3906 µM; Basal_Viability ATP RKO IC50/EC50 (RKO): 0.1329 µM"
CCC(C)n1ncn(-c2ccc(N3CCN(c4ccc(OC[C@H]5CO[C@](Cn6cncn6)(c6ccc(Cl)cc6Cl)O5)cc4)CC3)cc2)c1=O (stereo partly drawn) [NCGC00274068-01],1.5488 µM,> 10 µM,> 10 µM,> 10 µM,> 10 µM,> 20 µM,> 20 µM,> 20 µM,> 20 µM,> 20 µM,> 10 µM,–,–,–,–,–
O=C(Nc1ccc([N+](=O)[O-])cc1Cl)c1cc(Cl)ccc1O [Niclosamide],–,–,–,–,–,–,–,–,–,–,–,> 20 µM,> 20 µM,> 20 µM,> 20 µM,"IC50 ([1]; Homo sapiens, read-out: Anti-Angiogenesis): 0.112 µM; EC50 [3]: 1.57 µM; EC50 (INS-1E cells): > 10 µM; EC50 (NCI-H716 cells): > 10 µM; EC50 (HeLa cells; Homo sapiens, HeLa, read-out: CellCycle G2/M): > 10 µM; IC50 (DLD-1; Homo sapiens, DLD-1, read-out: Basal_Viability ATP DLD-1): 0.00349 µM; IC50 (HCT116; Homo sapiens, HCT-116, read-out: Basal_Viability ATP HCT116): 0.00144 µM; IC50 [4]: 0.00295 µM; IC50 (Colo320; Homo sapiens, COLO 320, read-out: Basal_Viability ATP Colo 320): 0.00826 µM"
COc1cc2c(c(OC)c1OC)-c1ccc(OC)c(=O)cc1[C@@H](NC(C)=O)CC2 [colchicine],–,–,–,–,–,–,–,–,–,–,–,–,> 20 µM,–,–,IC50 (hp70S6K1 (RPS6KB1)): > 20 µM; IC50 (hJAK2): > 20 µM; IC50 (hGSK3b): > 20 µM; IC50 (hFLT3): > 20 µM
O=C(CCCCCCC(=O)Nc1ccccc1)NO [vorinostat],–,–,–,–,–,–,–,–,–,–,–,> 20 µM,> 20 µM,> 20 µM,> 20 µM,"IC50 (hJAK2; kinase assay, read-out: JAK2): > 20 µM"

# From publication PMC4503722, “Novel Phenotypic Outcomes Identified for a Public Collection of Approved Drugs from a Publicly Accessible Panel of Assays” (PLoS ONE, 2015)
